Assay results from ChEMBL document CHEMBL6109075, “Identification of constrained peptidomimetics carrying a Michael acceptor warhead as antitrypanosomal agents” (Eur J Med Chem, 2025).

Tests used:
[1] = molecular target: Rhodesain (Trypanosoma brucei rhodesiense) (UniProt Q95PM0); experiment: Inhibition of Trypanosoma brucei rhodesiense rhodesain expressed in Pichia pastoris using Cbz-Phe-Arg-AMC as substrate at 20 uM incubated for 30 mins by fluorescence assay relative to control
[2] = Cytotoxicity against human SH-SY5Y cells assessed as reduction in cell viability incubated for 24 hrs by MTT assay; type: toxicity, cell-based
[3] = molecular target: Rhodesain (Trypanosoma brucei rhodesiense, UniProt Q95PM0); experiment: Inhibition of Trypanosoma brucei rhodesiense rhodesain expressed in Pichia pastoris using Cbz-Phe-Arg-AMC as substrate assessed as inhibition constant incubated for 30 mins by fluorescence assay
Sequence of Rhodesain (Q95PM0 whole entry): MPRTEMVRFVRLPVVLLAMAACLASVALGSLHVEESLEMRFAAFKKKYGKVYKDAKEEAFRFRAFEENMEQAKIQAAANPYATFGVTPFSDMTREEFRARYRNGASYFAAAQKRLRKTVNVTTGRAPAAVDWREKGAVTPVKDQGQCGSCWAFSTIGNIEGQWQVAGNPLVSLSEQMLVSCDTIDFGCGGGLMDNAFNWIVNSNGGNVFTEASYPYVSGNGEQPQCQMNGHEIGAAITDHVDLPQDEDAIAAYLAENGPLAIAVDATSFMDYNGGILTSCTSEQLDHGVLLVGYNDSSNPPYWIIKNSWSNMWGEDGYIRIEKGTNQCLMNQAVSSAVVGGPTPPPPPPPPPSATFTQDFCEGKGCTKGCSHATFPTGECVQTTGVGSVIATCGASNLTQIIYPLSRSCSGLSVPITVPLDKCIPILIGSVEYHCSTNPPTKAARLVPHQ

[4] = molecular target: Rhodesain (Trypanosoma brucei rhodesiense) (UniProt Q95PM0); experiment: Inhibition of Trypanosoma brucei rhodesiense rhodesain expressed in Pichia pastoris using Cbz-Phe-Arg-AMC as substrate assessed as second order rate constant obtained from ratio of Kinact by Ki incubated for 30 mins by fluorescence assay
[5] = test system: Trypanosoma brucei; experiment: Antitrypanosomal activity against Trypanosoma brucei incubated for 24 hrs by luminescence based ClarioStar plate reader analysis; type: functional, organism-based
[6] = molecular target: Rhodesain (Trypanosoma brucei rhodesiense) (UniProt Q95PM0); experiment: Inhibition of Trypanosoma brucei rhodesiense rhodesain expressed in Pichia pastoris using Cbz-Phe-Arg-AMC as substrate assessed as inactivation constant incubated for 30 mins by fluorescence assay

Sequence of Rhodesain (Trypanosoma brucei rhodesiense) (Q95PM0 1-450): as the sequence (Q95PM0 whole entry) above

Compound	inhibition [1]	CC50 at 24 h [2]	Ki [3]	Ratio [4]	EC50 [5]	Kinact [6]
CC(=O)/C=C/[C@H](CCc1ccccc1)NC(=O)[C@@H]1Cc2ccccc2CN1C(=O)c1c(F)cccc1F	32%					
CC(=O)/C=C/[C@H](CCc1ccccc1)NC(=O)[C@@H]1Cc2ccccc2CN1C(=O)[C@H](C)NC(=O)OCc1ccccc1	26%					
CC(=O)/C=C/[C@H](CCc1ccccc1)NC(=O)[C@@H]1Cc2ccccc2CN1C(=O)Nc1ccc(C)cc1	14%					
CC(=O)/C=C/[C@H](CCc1ccccc1)NC(=O)[C@@H]1Cc2ccccc2CN1C(=O)c1ccc(F)cc1F		> 100000 nM	90 nM	146 10^3/M/min	1210 nM	0.012 min⁻¹
CC(=O)/C=C/[C@H](CCc1ccccc1)NC(=O)[C@@H]1Cc2ccccc2CN1C(=O)c1cccc(F)c1		> 100000 nM	700 nM	30.1 10^3/M/min	1350 nM	0.021 min⁻¹
CC(=O)/C=C/[C@H](C)NC(=O)[C@@H]1Cc2ccccc2CN1C(=O)c1ccc(F)cc1F	20.2%					
CC(=O)/C=C/[C@H](CCc1ccccc1)NC(=O)[C@H](Cc1ccccc1)NC(=O)[C@H](CC(C)C)NC(=O)OCc1ccccc1					3100 nM	
CC(=O)/C=C/[C@H](CCc1ccccc1)NC(=O)[C@H](Cc1ccccc1)NC(=O)[C@H](Cc1ccccc1)NC(=O)OCc1ccccc1					2600 nM	
CC(=O)/C=C/[C@H](CCc1ccccc1)NC(=O)[C@@H]1Cc2ccccc2CN1C(=O)[C@H](CC1CCCCC1)NC(=O)OCc1ccccc1		> 100000 nM	22 nM	47.9 10^3/M/min	570 nM	0.001 min⁻¹
CC(=O)/C=C/[C@H](Cc1ccccc1)NC(=O)[C@@H]1Cc2ccccc2CN1C(=O)c1ccc(F)cc1F	18.4%					
CC(=O)/C=C/CNC(=O)[C@@H]1Cc2ccccc2CN1C(=O)c1ccc(F)cc1F	11%					
CC(=O)/C=C/[C@H](CCc1ccccc1)NC(=O)[C@@H]1Cc2ccccc2CN1C(=O)OC(C)(C)C	18%					
CC(=O)/C=C/[C@H](CCc1ccccc1)NC(=O)[C@@H]1Cc2ccccc2CN1C(=O)OCc1ccccc1		> 100000 nM	720 nM	6.7 10^3/M/min	670 nM	0.005 min⁻¹
CC(=O)/C=C/[C@H](CCc1ccccc1)NC(=O)[C@@H]1Cc2ccccc2CN1C(=O)c1ccccc1F		> 100000 nM	4880 nM	4.1 10^3/M/min	910 nM	0.019 min⁻¹
CC(=O)/C=C/[C@H](CCc1ccccc1)NC(=O)[C@H](Cc1ccccc1)NC(=O)[C@H](CC1CCCCC1)NC(=O)OCc1ccccc1					1300 nM	
CC(=O)/C=C/[C@H](CCc1ccccc1)NC(=O)[C@@H]1Cc2ccccc2CN1C(=O)[C@H](Cc1ccccc1)NC(=O)OCc1ccccc1		> 100000 nM	11 nM	75.6 10^3/M/min	420 nM	0.001 min⁻¹
CC(=O)/C=C/[C@H](CCc1ccccc1)NC(=O)[C@@H]1Cc2ccccc2CN1C(=O)c1ccc(F)cc1		> 100000 nM	1920 nM	8 10^3/M/min	850 nM	0.015 min⁻¹
CC(=O)/C=C/[C@H](CCc1ccccc1)NC(=O)[C@@H]1Cc2ccccc2CN1C(=O)[C@H](CC(C)C)NC(=O)OCc1ccccc1		> 100000 nM	16 nM	68.5 10^3/M/min	580 nM	0.001 min⁻¹
CC(=O)/C=C/[C@H](CCc1ccccc1)NC(=O)[C@@H]1Cc2ccccc2CN1C(=O)Nc1ccc(Cl)cc1C	40%					
